Experimental data taken from BindingDB's records for doi:10.1021/acsmedchemlett.5b00177 (Dart Neuroscience, 2015).

biological target: Methionine aminopeptidase 2 (Homo sapiens) (UniProt P50579); experiment: Inhibition of human METAP2 using Met-Pro-Arg-pNa substrate by para-nitroanilide chromophore release detection assay
Sequence (P50579 whole entry, looked up): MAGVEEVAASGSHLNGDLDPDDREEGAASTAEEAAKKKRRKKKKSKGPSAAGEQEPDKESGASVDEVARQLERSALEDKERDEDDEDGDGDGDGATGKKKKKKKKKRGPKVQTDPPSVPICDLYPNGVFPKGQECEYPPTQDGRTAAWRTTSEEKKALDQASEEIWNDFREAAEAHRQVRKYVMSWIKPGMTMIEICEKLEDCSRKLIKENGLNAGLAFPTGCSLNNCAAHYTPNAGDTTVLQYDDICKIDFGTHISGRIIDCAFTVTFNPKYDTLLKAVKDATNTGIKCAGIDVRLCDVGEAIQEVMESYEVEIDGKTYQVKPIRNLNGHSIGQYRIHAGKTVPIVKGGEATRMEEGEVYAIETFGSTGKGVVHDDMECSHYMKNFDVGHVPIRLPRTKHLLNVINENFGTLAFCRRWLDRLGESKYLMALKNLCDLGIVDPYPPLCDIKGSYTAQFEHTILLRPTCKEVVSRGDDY

Row | SMILES | IC50 [µM]
1 | O=c1c2cn[nH]c2c2cnc(-c3ncccc3Cl)cc2n1CC(F)(F)F | 13
2 | CN1CCN(c2ccc(-c3cnc4c5[nH]ncc5c(=O)n(CC(F)(F)F)c4c3)cn2)CC1 | 5
3 | O=c1c2cn[nH]c2c2ncc(-c3ccccc3C(F)(F)F)cc2n1CC(F)(F)F | 20
4 | CN1CCN(c2cncc(-c3cnc4c5[nH]ncc5c(=O)n(CC(F)(F)F)c4c3)c2)CC1 | 24
